Holding throughout (assay type): cell-based
One assay has as its system Candida albicans. Kind of assay: Antimicrobial efficacy in analogy to challenge test (NF EN ISO11930), Candida albicans. The procedure:
The antimicrobial efficacy was assessed in analogy to the regulatory challenge test method (NF EN ISO11930). Thus, mixtures of the respective active(s) with physiological serum with 0.85 wt.-% NaCl in the concentrations as outlined below are prepared under sterile conditions. Controls were also prepared under sterile conditions. The control as well as the mixtures were then deposed in 96-deep well plates (1.6 ml/well). […] After the contamination, each well was thoroughly mixed to ensure a homogeneous distribution of microbes. Then each plate was incubated at 22° C. for 24 h. The counting of the (remaining) population is carried out 24 h after contamination. Then, the average log reduction is calculated [−log 10{(value inoculum)/(value sample)}] which is represented in tables 1-5.

The subject of another assay is Staphylococcus aureus. Kind of assay: Antimicrobial efficacy in analogy to challenge test (NF EN ISO11930), Staphylococcus aureus. The procedure:
(§1) The antimicrobial efficacy was assessed in analogy to the regulatory challenge test method (NF EN ISO11930). Thus, mixtures of the respective active(s) with physiological serum with 0.85 wt.-% NaCl in the concentrations as outlined below are prepared under sterile conditions. Controls were also prepared under sterile conditions. The control as well as the mixtures were then deposed in 96-deep well plates (1.6 ml/well). The wells were contaminated with the respective bacterial or the fungal strains at 2.5*10^5 to 5.6*10^5 cfu/ml for the bacteria and 1*10^4 to 2.5*10^4 cfu/ml for the fungi to obtain the initial contamination as outlined below. After the contamination, each well was thoroughly mixed to ensure a homogeneous distribution of microbes. Then each plate was incubated at 22° C. for 24 h. The counting of the (remaining) population is carried out 24 h after contamination. Then, the average log reduction is calculated [−log 10{(value inoculum)/(value sample)}] which is represented in tables 1-5.

Another assay relates to Aspergillus brasiliensis. Kind of assay: Antimicrobial efficacy in analogy to challenge test (NF EN ISO11930), Aspergillus brasiliensis. Particulars: 0.3 wt.-% DBO. On the procedure: as §1
The test system of a further assay is Escherichia coli. Kind of assay: Antimicrobial efficacy in analogy to challenge test (NF EN ISO11930), Escherichia coli. The following applies: 0.2 wt.-% Sodium Benzoate. On the procedure:
as §1

On to `c1ccc2oc(-c3ccc(-c4nc5ccccc5o4)cc3)nc2c1` [DBO, 1,4-di(benzoxazol-2′-yl)benzene], for which the Log reduction is −0.51 with Candida albicans (0.3 wt.-% DBO, 24 h after contamination) and −2.05 in the assay on Aspergillus brasiliensis (24 h after contamination). Further, the “colony count 24 h” value in the assay on Candida albicans (0.3 wt.-% DBO, inoculum 32000 cfu/ml, 22° C., 24 h, physiological serum 0.85 wt.-% NaCl) is listed as 10000 cfu/ml; in the assay with Aspergillus brasiliensis (inoculum 45000 cfu/ml, 22° C., 24 h), 400 cfu/ml. Moreover, the “synergistic effect on antimicrobial activity” value in the assay on Staphylococcus aureus (DBO with p-Hydroxyacetophenone, conclusion from Table 3) was “synergistically enhances the antimicrobial activity of p-Hydroxyacetophenone”.

As to `CC(=O)c1ccc(O)cc1` [HAP, p-Hydroxyacetophenone], the “colony count 24 h” value with Staphylococcus aureus (0.3 wt.-% HAP, inoculum 550000 cfu/ml, 24 h) was 70000 cfu/ml.

In the assay with Candida albicans (1.0 wt.-% PDO, 24 h), `OCCCO` [PDO, 1,3-propanediol] gave a Log reduction of −0.24. In addition, the “colony count 24 h” value with Candida albicans (1.0 wt.-% PDO, inoculum 70000 cfu/ml, 24 h) was 40000 cfu/ml.

On to `O=C([O-])c1ccccc1.[Na+]` [Sodium Benzoate, sodium benzoate], for which, in the assay with Escherichia coli (inoculum 400000 cfu/ml), the “colony count 24 h” value is on record as 1000000 cfu/ml. Further, the Log reduction entry in the assay on Escherichia coli (24 h) is reported as “+0.40”.

Source of the values: patent US20220346377A1, “NOVEL COMPOSITIONS” (DSM IP ASSETS B.V., priority 2019, published 2022).
